The nature of the data set: refractive index (Na D-line) (dimensionless); wn = mass fraction of the nth substance listed. To be noted: 333.15 K, 100 kPa, Liquid, Standard Abbe refractometry.

Molecules are shown by their SMILES. ± gives the expanded uncertainty stated by the source.

Consider 2 compounds from the NIST ThermoML archive (doi:10.1021/acs.jced.6b00290).

By refractive index is commonly meant the speed of light in vacuum divided by its phase velocity in the sample. On to `[Br-].[Br-].[Mg+2]` [magnesium bromide (MgBr2)] + O, for which the refractive index (w1 = 0.5241) came out at 1.4594 ± 0.0004. Turning to `O=S(=O)([O-])[O-].[Mg+2]` [magnesium sulfate] + O, where the note is “w1 = 0.3525”, the refractive index is 1.3957 ± 0.0004.
